Source: BindingDB's records for patent WO2023019327 (Mindset Pharma, 2023)

Target: 5-hydroxytryptamine receptor 2A (Homo sapiens, UniProt P28223)
Test: FLIPR Calcium 6 Assay
Method: The dye is diluted with assay buffer (20mM HEPES in 1x HBSS, PH7.4); Probenecid was added to the final concentration of 5 mM; […]. Vortexed vigorously for 1-2 minutes. Medium is removed from cell plate by flicking the cell plate on towel papers. […] The cell plate is placed on plate shaker, the plate was agitated at 600rpm for 2 minutes. The plate is incubated at 37°C for 2 hours followed by additional 15-minute incubation at 25°C. 3*compound in assay buffer is prepared: a. Reference compounds are diluted to required concentration with DMSO. The compounds were added to a 384-well compound plate; b. Serial dilutions are performed; c. […] Add […] assay buffer to the compound plate; f.

Chain of 5-hydroxytryptamine receptor 2A (P28223 whole entry): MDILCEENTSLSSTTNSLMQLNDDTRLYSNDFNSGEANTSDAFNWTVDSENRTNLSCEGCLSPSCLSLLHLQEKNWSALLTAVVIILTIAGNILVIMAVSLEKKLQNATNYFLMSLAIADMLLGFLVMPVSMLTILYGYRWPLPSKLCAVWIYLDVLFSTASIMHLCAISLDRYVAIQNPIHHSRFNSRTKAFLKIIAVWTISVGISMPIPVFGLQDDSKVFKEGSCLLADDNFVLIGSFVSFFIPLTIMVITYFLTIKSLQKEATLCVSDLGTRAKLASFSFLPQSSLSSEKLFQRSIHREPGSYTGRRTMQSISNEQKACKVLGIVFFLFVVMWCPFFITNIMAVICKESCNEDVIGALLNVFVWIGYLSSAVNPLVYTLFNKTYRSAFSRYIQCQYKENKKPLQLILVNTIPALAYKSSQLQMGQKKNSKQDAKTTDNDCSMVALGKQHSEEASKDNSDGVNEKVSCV

With `CCCCC/C=C\C/C=C\CCCCCCCC(=O)N1CCC(c2c[nH]c3ccccc23)CC1` [WO2023019367, Compound I-87] the EC50 was > 30 µM.

In the case of `CCCCC/C=C\C/C=C\CCCCCCCC(=O)N1CCC(c2c[nH]c3ccc(OC)cc23)C1` (centres undefined) [WO2023019367, Compound I-81], the EC50 is reported as > 30 µM.

With `CCCCC/C=C\C/C=C\CCCCCCCC(=O)N(C)CCc1c[nH]c2ccc(OC)cc12` [WO2023019367, Compound I-21] the EC50 was > 30 µM.

`CCCCC/C=C\C/C=C\CCCCCCCC(=O)N1CCCC1Cc1c[nH]c2ccc(OC)cc12` (centres undefined) [WO2023019367, Compound I-55] was tested, and the EC50 was > 30 µM.

With `CCCCC/C=C\C/C=C\CCCCCCCC(=O)N1CCC(c2c[nH]c3ccc(OC)cc23)CC1` [WO2023019367, Compound I-88] the EC50 was > 30 µM.

For `CCCCC/C=C\C/C=C\CCCCCCCC(=O)N1CCCC1Cc1c[nH]c2ccccc12` (centres undefined) [WO2023019367, Compound I-46], the EC50 was > 30 µM.

In the case of `CN(C)CCc1c[nH]c2ccccc12` [2-(1H-indol-3-yl)-N,N-dimethylethanamine], the EC50 is reported as < 10 µM.

`CCCCC/C=C\C/C=C\CCCCCCCC(=O)N(C)CCc1c[nH]c2ccccc12` [WO2023019367, Compound I-1] was tested, and the EC50 was > 30 µM.

For `CCCCC/C=C\C/C=C\CCCCCCCC(=O)N1CCC(c2c[nH]c3ccccc23)C1` (centres undefined) [WO2023019367, Compound I-84], the EC50 was > 30 µM.
